In the supplement of paper PMC5908809:

Key:
IMC-1 (IL-2 20 ng/mL) [1] = test: drug sensitivity score (DSS) (DSS units); higher = more sensitive; extreme values may be limits of the assay; settings: 72 h
[2] = test system: normal primary NK cells, pool 1 (3 donors) (IL-2 2.5 ng/mL); test: as above; settings: 72 h
NKL (IL-2 2.5 ng/mL) [3] = test: as above; settings: 72 h
SNK-6 (IL-2 2.5 ng/mL) [4] = test: as above; settings: 72 h
KHYG-1 (IL-2 2.5 ng/mL) [5] = test: as above; settings: 72 h
YT (IL-2 2.5 ng/mL) [6] = test: as above; settings: 72 h
[7] = test system: normal primary NK cells, pool 3 (3 donors) (IL-2 2.5 ng/mL); test: as above; settings: 72 h
DERL-7 (IL-2 2.5 ng/mL) [8] = test: as above; settings: 72 h
[9] = test system: normal primary NK cells, pool 1 (3 donors), resting (IL-2 0 ng/mL); test: as above; settings: 72 h
NK-92 (IL-2 2.5 ng/mL) [10] = test: as above; settings: 72 h
NK-YS (IL-2 2.5 ng/mL) [11] = test: as above; settings: 72 h
[12] = test system: normal primary NK cells, pool 2 (3 donors) (IL-2 2.5 ng/mL); test: as above; settings: 72 h
KAI3 (IL-2 2.5 ng/mL) [13] = test: as above; settings: 72 h
[14] = test system: normal NK cells expanded with K562-aAPC; test: as above; settings: 72 h; IL-2 2.5 ng/mL
Procedure: (§1)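 Drug sensitivity and resistance testing on K562-aAPC-expanded normal NK cells: 5 concentrations (10-fold steps over a 10,000-fold range), 72 h at 37 °C, viability by CellTiter-Glo normalised to DMSO and benzethonium chloride controls; DSS from the fitted curve.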

[15] = test system: normal NK cells expanded with K562-aAPC; test: percent inhibition of viability; higher = more inhibition; settings: 72 h, IL-2 2.5 ng/mL
Procedure: as §1

IMC-1 (IL-2 20 ng/mL) [16] = test: as above; settings: 72 h
[17] = test system: normal primary NK cells, pool 1 (3 donors) (IL-2 2.5 ng/mL); test: as above; settings: 72 h
NKL (IL-2 2.5 ng/mL) [18] = test: as above; settings: 72 h
SNK-6 (IL-2 2.5 ng/mL) [19] = test: as above; settings: 72 h
KHYG-1 (IL-2 2.5 ng/mL) [20] = test: as above; settings: 72 h
YT (IL-2 2.5 ng/mL) [21] = test: as above; settings: 72 h
[22] = test system: normal primary NK cells, pool 3 (3 donors) (IL-2 2.5 ng/mL); test: as above; settings: 72 h
DERL-7 (IL-2 2.5 ng/mL) [23] = test: as above; settings: 72 h
[24] = test system: normal primary NK cells, pool 1 (3 donors), resting (IL-2 0 ng/mL); test: as above; settings: 72 h
NK-92 (IL-2 2.5 ng/mL) [25] = test: as above; settings: 72 h
NK-YS (IL-2 2.5 ng/mL) [26] = test: as above; settings: 72 h
[27] = test system: normal primary NK cells, pool 2 (3 donors) (IL-2 2.5 ng/mL); test: as above; settings: 72 h
KAI3 (IL-2 2.5 ng/mL) [28] = test: as above; settings: 72 h

O=C(c1ccc(F)c(F)c1Nc1ccc(I)cc1F)N1CC(O)([C@@H]2CCCCN2)C1 [Cobimetinib] (max concentration tested 1000 nM)
Settings	drug sensitivity score
DERL-7 (IL-2 2.5 ng/mL) [8]	7.96
IMC-1 (IL-2 20 ng/mL) [1]	0
KAI3 (IL-2 2.5 ng/mL) [13]	3.21
KHYG-1 (IL-2 2.5 ng/mL) [5]	6.6
NK-92 (IL-2 2.5 ng/mL) [10]	0
NK-YS (IL-2 2.5 ng/mL) [11]	1.78
NKL (IL-2 2.5 ng/mL) [3]	10.4
SNK-6 (IL-2 2.5 ng/mL) [4]	0
YT (IL-2 2.5 ng/mL) [6]	0.26
[2]	5.11
[7]	0.02
[9]	2.92
[12]	1.58
[14]	0.83

percent inhibition of viability [%]
Settings	0.1 nM	1 nM	10 nM	100 nM	1000 nM
DERL-7 (IL-2 2.5 ng/mL) [23]	-2.43	3.83	18.1	32.9	46.5
IMC-1 (IL-2 20 ng/mL) [16]	-6.91	-4.02	-2.84	-2.89	11.3
KAI3 (IL-2 2.5 ng/mL) [28]	9.38	9.29	9.13	11.7	32.1
KHYG-1 (IL-2 2.5 ng/mL) [20]	0.28	-3.46	0.44	23.2	61.9
NK-92 (IL-2 2.5 ng/mL) [25]	-10.5	-14.3	-27.4	-34.9	9.96
NK-YS (IL-2 2.5 ng/mL) [26]	-1.72	-3.33	-3.31	6.41	24.2
NKL (IL-2 2.5 ng/mL) [18]	-12.4	-11.4	17.8	45	73.1
SNK-6 (IL-2 2.5 ng/mL) [19]	-10.3	-0.09	-17.7	-8.92	-10.9
YT (IL-2 2.5 ng/mL) [21]	0.33	-2.92	-2.04	-0.43	15.7
[15]	-7.24	-7.72	-6.49	1.17	21.4
[17]	-3.52	2.49	17.3	18.4	24
[22]	-9.25	-10.3	-2.76	-1.62	12.1
[24]	7.7	3.18	22	14	16.4
[27]	-3.62	-9.92	3.68	12.4	19.9

FC(F)(F)c1ccc(/C=C/c2nc(COc3ccc(CCCCn4ccnn4)cc3)co2)cc1 [Mubritinib] (max concentration tested 1000 nM)
Settings	drug sensitivity score
DERL-7 (IL-2 2.5 ng/mL) [8]	4.52
IMC-1 (IL-2 20 ng/mL) [1]	20.6
KAI3 (IL-2 2.5 ng/mL) [13]	5.59
KHYG-1 (IL-2 2.5 ng/mL) [5]	9.82
NK-92 (IL-2 2.5 ng/mL) [10]	6.23
NK-YS (IL-2 2.5 ng/mL) [11]	13
NKL (IL-2 2.5 ng/mL) [3]	8.04
SNK-6 (IL-2 2.5 ng/mL) [4]	0
YT (IL-2 2.5 ng/mL) [6]	11
[2]	11.5
[7]	4.94
[9]	14.7
[12]	7.39
[14]	0.75

percent inhibition of viability [%]
Settings	0.1 nM	1 nM	10 nM	100 nM	1000 nM
DERL-7 (IL-2 2.5 ng/mL) [23]	1.75	0.44	5.74	24.8	27
IMC-1 (IL-2 20 ng/mL) [16]	-1.73	-4.86	37.2	86.6	31.2
KAI3 (IL-2 2.5 ng/mL) [28]	3.33	-9.68	-0.43	26.5	45.4
KHYG-1 (IL-2 2.5 ng/mL) [20]	-2.15	-7.85	17	42.5	66.5
NK-92 (IL-2 2.5 ng/mL) [25]	-8.31	-12.6	7.62	30.8	42.3
NK-YS (IL-2 2.5 ng/mL) [26]	-3.84	-4.99	8.6	64	81.2
NKL (IL-2 2.5 ng/mL) [18]	-16.4	-8.04	7.63	38.2	57.6
SNK-6 (IL-2 2.5 ng/mL) [19]	-13.7	-12.2	4.91	4.95	7.75
YT (IL-2 2.5 ng/mL) [21]	-2.71	-3.53	24	44.2	39.6
[15]	-6.01	-7.06	-7.66	9.52	14.1
[17]	-7.65	0.13	21.1	48.2	50.2
[22]	-9.77	-2.9	15.1	21.5	34
[24]	10	1.44	28.5	61	64.8
[27]	-5.29	-7.28	16.6	27.6	34.2
